Assay results reported in patent US10472341B2, “Bicyclic tetrahydrothiazepine derivatives useful for the treatment of neoplastic and/or infectious diseases” (APEIRON BIOLOGICS AG, priority 2015, dated 2019).
Like-named read-outs stand apart in the source and are kept apart here.

Tests used:
[1] = tested on: aCD3/aCD28-stimulated human PBMCs; assay: Cytokine production in aCD3/aCD28 stimulated human PBMCs; type: cell-based; conditions: PBMC, 18 h
Outline: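 Ficoll-isolated human PBMCs at 1e6 cells/mL in X-Vivo15, stimulated with soluble anti-CD3/CD28 (OKT3 and 28.2, 1 μg/mL each) plus compound for 18 h at 37° C. Supernatant cytokines quantified by MSD or HTRF.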

[2] = tested on: aCD3/aCD28-stimulated human CD4+-T-cells; assay: IL-2 production and activation markers in aCD3/aCD28 stimulated isolated human CD4+-T-cells; type: cell-based; conditions: IL-2 production at 3 μM compound
Outline: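 CD4+ T cells isolated from buffy-coat PBMCs by microbeads were plated in Xvivo medium (1.5*10^5 cells/well) and stimulated with anti-CD3/28 mAbs plus compound. IL-2 measured by ELISA in supernatants at 24 h or 48 h; CD25 and proliferation by flow cytometry, CD69 at 24 h. Activity classes based on IL-2 at 3 μM compound.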

[3] = enhancement of IFN-γ production, read-out: Activity Class IFN-γ
[4] = enhancement of IL-2 production, read-out: Activity Class IL-2

Question: Which results are given for `Cl.Cl.N[C@H]1CSc2ccc(C(=O)Nc3cccnc3)cc2N(Cc2ccc(OC(F)(F)F)cc2)C1=O` [Example 25, (3R)-3-amino-4-oxo-N-(pyridin-3-yl)-5-{[4-(trifluoromethoxy)phenyl]methyl}-2,3,4,5-tetrahydro-1,5-benzothiazepine-7-carboxamide dihydrochloride]?
Answer: EC50 [1, 3]: > 5010 nM; EC50 [1, 4]: 1580 to 5010 nM; Activity Class CD4+ [2]: C (IL-2 production at 3 μM compound concentration between 2-fold increase as compared to mean IL-2 production of stimulated cells in the absence of compounds and <2 ng/mL)

Question: `Cl.N[C@H]1CSc2ccc(C(=O)NCc3ccc(F)cc3)cc2N(Cc2ccc(Cl)cc2)C1=O` [Example 26, (3R)-3-amino-5-[(4-chlorophenyl)methyl]-N-[(4-fluorophenyl)methyl]-4-oxo-2,3,4,5-tetrahydro-1,5-benzothiazepine-7-carboxamide hydrochloride] was tested. Which EC50 [1, 3] did it give?
Answer: < 1580 nM

Question: And the EC50 [1, 4]?
Answer: 1580 to 5010 nM

Question: What about the “Activity Class CD4+” value [2] of the same compound?
Answer: B (IL-2 production at 3 μM compound concentration between 2-10 ng/mL)

Question: What does the source list for `COc1ccc([C@@H](C)NC(=O)c2ccc3c(c2)N(Cc2ccc(Cl)cc2)C(=O)[C@@H](N)CS3)cc1` [Example 27, (3R)-3-amino-5-[(4-chlorophenyl)methyl]-N-[(1R)-1-(4-methoxyphenyl)ethyl]-4-oxo-2,3,4,5-tetrahydro-1,5-benzothiazepine-7-carboxamide]?
Answer: EC50 [1, 3]: < 1580 nM; EC50 [1, 4]: 1580 to 5010 nM; Activity Class CD4+ [2]: B (IL-2 production at 3 μM compound concentration between 2-10 ng/mL)

Question: What does the source list for `Cl.N[C@H]1CSc2ccc(C(=O)NCC3CCCOC3)cc2N(Cc2ccc(Cl)cc2)C1=O` (stereo partly drawn) [Example 28, (3R)-3-amino-5-[(4-chlorophenyl)methyl]-N-(oxan-3-ylmethyl)-4-oxo-2,3,4,5-tetrahydro-1,5-benzothiazepine-7-carboxamide hydrochloride]?
Answer: EC50 [1, 3]: 1580 to 5010 nM; EC50 [1, 4]: > 5010 nM; Activity Class CD4+ [2]: C (IL-2 production at 3 μM compound concentration between 2-fold increase as compared to mean IL-2 production of stimulated cells in the absence of compounds and <2 ng/mL)

Question: Which EC50 [1, 3] does the source give for `Cl.N[C@H]1CSc2ccc(C(=O)NCCCC(F)(F)F)cc2N(Cc2ccc(OC(F)(F)F)cc2)C1=O` [Example 29, (3R)-3-amino-4-oxo-N-(4,4,4-trifluorobutyl)-5-{[4-(trifluoromethoxy)phenyl]methyl}-2,3,4,5-tetrahydro-1,5-benzothiazepine-7-carboxamide hydrochloride] here?
Answer: < 1580 nM

Question: What about the EC50 [1, 4] of the same compound?
Answer: < 1580 nM

Question: What about the “Activity Class CD4+” value [2] of the same compound?
Answer: B (IL-2 production at 3 μM compound concentration between 2-10 ng/mL)

Question: Which EC50 [1, 3] does the source give for `Cl.N[C@H]1CSc2ccc(C(=O)NCC3CCOCC3)cc2N(Cc2ccc(OC(F)(F)F)cc2)C1=O` [Example 30, (3R)-3-amino-N-(oxan-4-ylmethyl)-4-oxo-5-{[4-(trifluoromethoxy)phenyl]methyl}-2,3,4,5-tetrahydro-1,5-benzothiazepine-7-carboxamide hydrochloride] here?
Answer: > 5010 nM

Question: What about the EC50 [1, 4] of the same compound?
Answer: 1580 to 5010 nM

Question: And the “Activity Class CD4+” value [2]?
Answer: B (IL-2 production at 3 μM compound concentration between 2-10 ng/mL)

Question: With `Cl.N[C@H]1CSc2ccc(C(=O)NCc3ccc(F)cc3)cc2N(Cc2ccc(OC(F)(F)F)cc2)C1=O` [Example 31, (3R)-3-amino-N-[(4-fluorophenyl)methyl]-4-oxo-5-{[4-(trifluoromethoxy)phenyl]-methyl}-2,3,4,5-tetrahydro-1,5-benzothiazepine-7-carboxamide hydrochloride] as the compound, how does the EC50 [1, 3] read?
Answer: < 1580 nM

Question: What about the EC50 [1, 4] of the same compound?
Answer: < 1580 nM

Question: And the “Activity Class CD4+” value [2]?
Answer: B (IL-2 production at 3 μM compound concentration between 2-10 ng/mL)

Question: `Cl.N[C@H]1CSc2ccc(C(=O)NC3CCC(F)(F)CC3)cc2N(Cc2ccc(Cl)cc2)C1=O` [Example 33, (3R)-3-amino-5-[(4-chlorophenyl)methyl]-N-(4,4-difluorocyclohexyl)-4-oxo-2,3,4,5-tetrahydro-1,5-benzothiazepine-7-carboxamide hydrochloride] was tested. Which EC50 [1, 3] did it give?
Answer: < 1580 nM

Question: What about the EC50 [1, 4] of the same compound?
Answer: 1580 to 5010 nM

Question: And the “Activity Class CD4+” value [2]?
Answer: B (IL-2 production at 3 μM compound concentration between 2-10 ng/mL)

Question: What does the source list for `CC(NC(=O)c1ccc2c(c1)N(Cc1ccc(Cl)cc1)C(=O)[C@@H](N)CS2)c1ccc(F)cc1.Cl` (stereo partly drawn) [Example 34, (3R)-3-amino-5-[(4-chlorophenyl)methyl]-N-[1-(4-fluorophenyl)ethyl]-4-oxo-2,3,4,5-tetrahydro-1,5-benzothiazepine-7-carboxamide hydrochloride]?
Answer: EC50 [1, 3]: 1580 to 5010 nM; EC50 [1, 4]: 1580 to 5010 nM; Activity Class CD4+ [2]: C (IL-2 production at 3 μM compound concentration between 2-fold increase as compared to mean IL-2 production of stimulated cells in the absence of compounds and <2 ng/mL)

Question: `COc1ccc([C@H](C)NC(=O)c2ccc3c(c2)N(Cc2ccc(Cl)cc2)C(=O)[C@@H](N)CS3)cc1` [Example 35, (3R)-3-amino-5-[(4-chlorophenyl)methyl]-N-[(1S)-1-(4-methoxyphenyl)ethyl]-4-oxo-2,3,4,5-tetrahydro-1,5-benzothiazepine-7-carboxamide] was tested. Which EC50 [1, 3] did it give?
Answer: > 5010 nM

Question: And the EC50 [1, 4]?
Answer: > 5010 nM

Question: And the “Activity Class CD4+” value [2]?
Answer: C (IL-2 production at 3 μM compound concentration between 2-fold increase as compared to mean IL-2 production of stimulated cells in the absence of compounds and <2 ng/mL)

Question: `Cl.N[C@H]1CSc2ccc(C(=O)NCCCC(F)(F)F)cc2N(Cc2ccc(C(F)(F)F)nc2)C1=O` [Example 36, (3R)-3-amino-4-oxo-N-(4,4,4-trifluorobutyl)-5-{[6-(trifluoromethyl)pyridin-3-yl]methyl}-2,3,4,5-tetrahydro-1,5-benzothiazepine-7-carboxamide hydrochloride] was tested. Which EC50 [1, 3] did it give?
Answer: < 1580 nM

Question: And the EC50 [1, 4]?
Answer: > 5010 nM

Question: What about the “Activity Class CD4+” value [2] of the same compound?
Answer: C (IL-2 production at 3 μM compound concentration between 2-fold increase as compared to mean IL-2 production of stimulated cells in the absence of compounds and <2 ng/mL)

Question: For `Cl.N[C@H]1CSc2ccc(C(=O)NCc3ccc(F)cc3)cc2N(Cc2ccc(C(F)(F)F)nc2)C1=O` [Example 37, (3R)-3-amino-N-[(4-fluorophenyl)methyl]-4-oxo-5-{[6-(trifluoromethyl)pyridin-3-yl]methyl}-2,3,4,5-tetrahydro-1,5-benzothiazepine-7-carboxamide hydrochloride], which EC50 [1, 3] is on record?
Answer: > 5010 nM

Question: What about the EC50 [1, 4] of the same compound?
Answer: 1580 to 5010 nM

Question: And the “Activity Class CD4+” value [2]?
Answer: C (IL-2 production at 3 μM compound concentration between 2-fold increase as compared to mean IL-2 production of stimulated cells in the absence of compounds and <2 ng/mL)

Question: What does the source list for `C[C@@H](NC(=O)c1ccc2c(c1)N(Cc1ccc(Cl)cc1)C(=O)[C@@H](N)CS2)c1ccc(F)cc1.Cl` [Example 38, (3R)-3-amino-5-[(4-chlorophenyl)methyl]-N-[(1R)-1-(4-fluorophenyl)ethyl]-4-oxo-2,3,4,5-tetrahydro-1,5-benzothiazepine-7-carboxamide hydrochloride]?
Answer: EC50 [1, 3]: 1580 to 5010 nM; EC50 [1, 4]: 1580 to 5010 nM; Activity Class CD4+ [2]: C (IL-2 production at 3 μM compound concentration between 2-fold increase as compared to mean IL-2 production of stimulated cells in the absence of compounds and <2 ng/mL)

Question: How did the EC50 [1, 3] turn out when `Cl.N[C@H]1CSc2cc(F)c(C(=O)NCc3ccc(F)cc3)cc2N(Cc2ccc(Cl)cc2)C1=O` [Example 39, (3R)-3-amino-5-[(4-chlorophenyl)methyl]-8-fluoro-N-[(4-fluorophenyl)methyl]-4-oxo-2,3,4,5-tetrahydro-1,5-benzothiazepine-7-carboxamide hydrochloride] was run?
Answer: < 1580 nM

Question: What about the EC50 [1, 4] of the same compound?
Answer: 1580 to 5010 nM

Question: And the “Activity Class CD4+” value [2]?
Answer: B (IL-2 production at 3 μM compound concentration between 2-10 ng/mL)

Question: How did the EC50 [1, 3] turn out when `CCCCNC(=O)c1cc2c(cc1F)SC[C@H](N)C(=O)N2Cc1ccc(Cl)cc1.Cl` [Example 41, (3R)-3-amino-N-butyl-5-[(4-chlorophenyl)methyl]-8-fluoro-4-oxo-2,3,4,5-tetrahydro-1,5-benzothiazepine-7-carboxamide hydrochloride] was run?
Answer: < 1580 nM

Question: And the EC50 [1, 4]?
Answer: 1580 to 5010 nM

Question: And the “Activity Class CD4+” value [2]?
Answer: C (IL-2 production at 3 μM compound concentration between 2-fold increase as compared to mean IL-2 production of stimulated cells in the absence of compounds and <2 ng/mL)

Question: `Cl.N[C@H]1CSc2cc(F)c(C(=O)NCC3CCOCC3)cc2N(Cc2ccc(Cl)cc2)C1=O` [Example 42, (3R)-3-amino-5-[(4-chlorophenyl)methyl]-8-fluoro-N-(oxan-4-ylmethyl)-4-oxo-2,3,4,5-tetrahydro-1,5-benzothiazepine-7-carboxamide hydrochloride] was tested. Which EC50 [1, 3] did it give?
Answer: 1580 to 5010 nM

Question: And the EC50 [1, 4]?
Answer: > 5010 nM

Question: What about the “Activity Class CD4+” value [2] of the same compound?
Answer: C (IL-2 production at 3 μM compound concentration between 2-fold increase as compared to mean IL-2 production of stimulated cells in the absence of compounds and <2 ng/mL)

Question: With `COc1ccc(CNC(=O)c2cc3c(cc2F)SC[C@H](N)C(=O)N3Cc2ccc(Cl)cc2)cc1.Cl` [Example 43, (3R)-3-amino-5-[(4-chlorophenyl)methyl]-8-fluoro-N-[(4-methoxyphenyl)methyl]-4-oxo-2,3,4,5-tetrahydro-1,5-benzothiazepine-7-carboxamide hydrochloride] as the compound, how does the EC50 [1, 3] read?
Answer: < 1580 nM

Question: And the EC50 [1, 4]?
Answer: 1580 to 5010 nM

Question: What about the “Activity Class CD4+” value [2] of the same compound?
Answer: C (IL-2 production at 3 μM compound concentration between 2-fold increase as compared to mean IL-2 production of stimulated cells in the absence of compounds and <2 ng/mL)

Question: `Cc1nc(-c2ccc(CN3C(=O)[C@@H](N)CSc4ccc(C(=O)NCC5CCOCC5)cc43)cc2)no1.Cl` [Example 44, (3R)-3-amino-5-{[4-(5-methyl-1,2,4-oxadiazol-3-yl)phenyl]methyl}-N-(oxan-4-ylmethyl)-4-oxo-2,3,4,5-tetrahydro-1,5-benzothiazepine-7-carboxamide hydrochloride] was tested. Which EC50 [1, 3] did it give?
Answer: 1580 to 5010 nM

Question: What about the EC50 [1, 4] of the same compound?
Answer: > 5010 nM

Question: What about the “Activity Class CD4+” value [2] of the same compound?
Answer: C (IL-2 production at 3 μM compound concentration between 2-fold increase as compared to mean IL-2 production of stimulated cells in the absence of compounds and <2 ng/mL)
